The values that follow come from US20140094456A1, “ANTI-FIBROTIC PYRIDINONES” (InterMune, Inc., priority 2012, published 2014).

The structures appear in SMILES notation. Some results are limits rather than exact numbers.

For the first assay, the system named is endothelin-1 (ET-1) production. In words: ET-1 assay: inhibitory effect on TGF-b induced endothelin-1 production in fibroblasts (ELISA). The format is cell-based, human. The following applies: Homo sapiens, Fibroblast, inhibition of stimulant (TGFb, serum, LPA etc) induced ET-1 production in fibroblasts. The protocol:
Assay of Inhibitory Effect on TGF-b Induced Endothelin-1 Production
Fibroblasts (primary human lung and dermal, HFL-1, 3T3 etc) are seeded in 96-well plates at ˜15000 cells/well and serum starved for 0-48 hours. After media exchange, compounds serially diluted in DMSO are added to the cells. After a brief incubation of ˜30 min, stimulants (TGFb, serum, LPA etc) are added followed by further incubation for 16-48 hours. Media is then harvested and stored frozen in plate format for later endothelin-1 (ET-1) determination by ELISA. Toxicity measurements are made using the ATPlite kit (Perkin-Elmer). ET-1 is quantified using an ELISA kit (R&D Systems). The amount of ET-1 produced in the assay wells are back-calculated using the ELISA standard. The ability of a compound to inhibit ET-1 production is typically analyzed by fitting dose-response curves to a 4-parameter logistic function to obtain an EC50 value. A measure of cytotoxicity (CC50) is likewise reported from the same experiment using the ATPlite data.
Compounds of some embodiments were prepared according to synthetic methods described herein and assay data obtained for EC50 against ET-1. The assay data obtained is presented in Table 2, in which A=less than 50 μM, B=greater than or equal to 50 μM and less than or equal to 200 μM; and C=greater than 200 μM.
(An ELISA detects its analyte on a solid surface through an enzyme-linked reagent.)
On to `CC(=O)c1ccc(=O)n(-c2ccc(OC(C)C)cc2)c1` [Compound 10], for which the half-maximal effective concentration (EC50) (as a rule, the concentration needed to bring the measured effect to its halfway point) is > 200 µM. For the compound `COCCOCCOCCOc1ccc(-n2cc(C)ccc2=O)cc1` [Compound 21], the EC50 is > 200 µM.

On to `COCCOCCOCCOc1cccc(-n2cc(C)ccc2=O)c1` [Compound 22], for which the EC50 was > 200 µM.

In the case of `CCOC(=O)Nc1cc(=O)n(-c2ccc(OC(F)(F)F)cc2)cc1-c1ccc(F)cc1` [Compound 114], the EC50 is > 200 µM. `CCCCOC(=O)Nc1cc(=O)n(-c2ccc(OC(F)(F)F)cc2)cc1-c1cnn(C)c1` [Compound 136] registered an EC50 of 50 to 200 µM. Turning to `Cn1cc(-c2cn(-c3ccc(OC(F)(F)F)cc3)c(=O)cc2NC(=O)OCc2ccccc2)cn1` [Compound 140], the EC50 was in the range of 50 to 200 µM. Regarding `Cc1cc(=O)n(-c2ccc(C(F)(F)F)cc2)cc1-c1ccccc1` [Compound 170], the EC50 is < 50 µM. The same measure, in the same setting: next, `CN1C(=O)COc2c(-c3cnn(C)c3)cn(-c3ccc(OC(F)(F)F)cc3)c(=O)c21` [Compound 396]: > 200 µM; `COCCOc1ccc(Oc2cc(=O)n(-c3ccc(OC(F)(F)F)cc3)cc2-c2cnn(C)c2)cc1` [Compound 533]: 50 to 200 µM.

In the case of `O=c1c2c(ncn2C2CC2)c(-c2cn[nH]c2)cn1-c1ccc(OC(F)(F)F)cc1` [Compound 650], the EC50 was < 50 µM.

Staying with this assay, now noted: inhibition of stimulant (TGFb, serum, LPA etc) induced ET-1 production in fibroblasts.
Compound `CC(C)Oc1ccc(-n2cc(-c3ccc(F)cc3)ccc2=O)cc1` [Compound 288] came in with an EC50 of 50 to 200 µM.

For a further assay, the system named is Fibroblasts (primary human lung and dermal, HFL-1, 3T3 etc). The assay can be described thus: Cell proliferation assay: inhibitory effect on cell proliferation (BrdU incorporation) in fibroblasts. The format is cell-based. The following applies: HFL1, 50% inhibition of stimulant (LPA, TGFb, serum etc) induced increase of BrdU incorporation in fibroblasts. The protocol: Assay of Inhibitory Effect on Cell Proliferation (BrdU Incorporation)
Fibroblasts (primary human lung and dermal, HFL-1, 3T3 etc) were plated on a 96-well plate and serum starved for 24-48 hours. The media were then exchanged for media containing stimulants (LPA, TGFb, serum etc) and cultured further for 16-24 hours before BrdU addition. After culturing for another 8 hours, cells were washed with PBS and the amount of BrdU incorporated into the cells was assayed by absorbance at 450 nm using the Cell proliferation ELISA system (RPN250, Amersham LIFE SCIENCE). The difference between the amount of BrdU incorporated in the stimulant-added well and the amount of BrdU incorporated in the well containing no stimulant represented the amount of BrdU incorporation accelerated by stimulant. The increase of BrdU incorporation without the addition of test compounds was set as 100% and the concentration of compound with 50% inhibition in the increase of BrdU incorporation (IC50 value) was determined. The test compounds were added 0-30 min before stimulant addition.
Compounds of some embodiments were prepared according to synthetic methods described herein and assay data obtained for IC50 for BrdU inhibition. The assay data obtained is presented in Table 3, in which A=less than 50 μM, B=greater than or equal to 50 μM and less than or equal to 200 μM; and C=greater than 200 μM.
For orientation: Dividing cells build labelled thymidine or BrdU into new DNA.
Consider `COCCOCCOCCOc1ccc(-n2cc(C)ccc2=O)cc1` [Compound 21], for which the half-maximal inhibitory concentration (IC50) (as a rule, the midpoint of a concentration-inhibition curve) is > 200 µM. For `O=c1c2c(ncn2C2CC2)c(-c2cn[nH]c2)cn1-c1ccc(OC(F)(F)F)cc1` [Compound 650], the IC50 is < 50 µM.
